Results: US20240270748A1 (Merck Patent GmbH, priority 2021, published 2024)
Structures can show the parent of a compound that is named as a salt.

tested on: YAP-TEAD interaction; assay: SK-HEP-1 reporter assay (8xTEAD responsive elements driving NanoLuc luciferase); format: cell-based; conditions: Homo sapiens, SK-HEP1, SK-HEP-1 reporter assay; class symbols
Description: To identify inhibitors of YAP-TEAD interaction, 8×TEAD responsive elements driving the NanoLuc® luciferase gene were stably integrated into SK-HEP-1 cells (ECACC #: 91091816).
For the assay, cells were treated in duplicates with the test compounds in a 10-point dose, with the top concentration starting at 30 μM (final concentration in assay). After a 24 hour incubation at 37° C., 95% rH, and 5% CO2, a luciferase substrate/lysis reagent mix (NanoGlo™, Promega) was added to the cells, allowing the quantification of cellular luciferase activity.
Cell Media: The cells were cultured in the following media: MEM, +10% FBS, +1× GlutaMAX, +1 mM Sodium-Pyruvate, +100 μM Non-essential amino acids, +0.1 mg/ml Hygromycin. The media used for the assay was: MEM (w/o Phenol Red), +10% FBS, +1× GlutaMAX, +1 mM Sodium-Pyruvate, +100 μM Non-essential amino acids, +0.5% Pen/Strep
Reagents: The reagents used are listed below:
Cell culture: The cells were examined using an inverted microscope to check for health and cell density. To dissociate adherent cells, the monolayer of cells was washed once with pre-warmed PBS. After removing the PBS, 3 ml pre-warmed Accutase® was added to a F75 flask, dispersed evenly and the flask was allowed to sit in incubator for ˜4-5 minutes.
When a single cell suspension was obtained, 7 ml of prewarmed growth media was added and resuspended with the cells. The cell suspension was transferred to a sterile 15 ml conical centrifuge tube, and spun for 5 min at 300×g, RT. The supernatant was discarded and the pellet was resuspended in 10 ml of pre-warmed growth media.
The total cell count was determined, and 20 μl of the desired cell number was added to each well of a 384 well plate using a Multidrop Combi. The plates were then incubated for 24 hours at 37° C., 95% rH, and 5% C02.
Compound treatment: 24 hours after seeding, the cells were treated with compounds.
A 1:333 dilution of compounds, diluted in DMSO, was made to get a final concentration of 0.3% DMSO per well. To transfer the compounds to the assay plate, […] was shot from Labcyte low dead volume plates to the cell plates containing 20 μl media/well with the ECHO 555 liquid handling system.
After treatment, the cells were fed with 20 μl fresh pre-warmed assay media using a Multidrop combi.
The assay plates were then incubated for another 24 h at 37° C., 95% rH, and 5% CO2.
Luciferase readout: 24 h after treatment, the plates were taken out of the incubator and were allowed to equilibrate to RT. 30 μl of NanoGlo® reagent was added to the plates in the dark. Plates were shaken for 20 min on a Teleshake (˜1500 rpm) in the dark. The luminescence was then measured using an EnVision microplate reader. The IC50 values were generated using Genedata Screener®.

| IC50 [nM] | SMILES |
| --- | --- |
| 100 to 10000 | Cn1cc2c3cc(NC(=O)CC4(O)CNC4)ccc3n(-c3ccc(C(F)(F)F)cc3)c2n1 [Example C259, 2-(3-hydroxyazetidin-3-yl)-N-{2-methyl-8-[4-(trifluoromethyl)phenyl]-2H,8H-pyrazolo[3,4-b]indol-5-yl}acetamide Formate] |
| 100 to 10000 | Cn1cc2c3cc(C(=O)N=S4(=O)CC5(CNC5)C4)ccc3n(-c3ccc(C(F)(F)F)cc3)c2n1 [Example C271, 2-methyl-N-{2-oxo-2¿6-thia-6-azaspiro[3.3]heptan-2-ylidene}-8-[4-(trifluoromethyl)phenyl]-2H,8H-pyrazolo[3,4-b]indole-5-carboxamide Formate] |
| 10 to 100 | C[C@H](NC(=O)c1ccc2c(c1)c1cn(C)nc1n2-c1ccc(C(F)(F)F)cc1)c1ccc(Cl)nc1 [Example C265, N-[(1S)-1-(6-chloropyridin-3-yl)ethyl]-2-methyl-8-[4-(trifluoromethyl)phenyl]-2H,8H-pyrazolo[3,4-b]indole-5-carboxamide] |
| 100 to 10000 | Cn1cc2c3cc(C(=O)NCCOC4CCNC4)ccc3n(-c3ccc(C(F)(F)F)cc3)c2n1 (stereo not shown) [Example C142, 2-methyl-N-[2-(pyrrolidin-3-yloxy)ethyl]-8-[4-(trifluoromethyl)phenyl]-2H,8H-pyrazolo[3,4-b]indole-5-carboxamide] |
| 100 to 10000 | Cn1cnc2c1c1cc(C3CC(Br)=NO3)ccc1n2-c1ccc(C(F)(F)F)cc1 (stereo not shown) [Example C158, 3-bromo-5-{1-methyl-4-[4-(trifluoromethyl)phenyl]-1H,4H-imidazo[4,5-b]indol-7-yl}-4,5-dihydro-1,2-oxazole] |
| 100 to 10000 | [2H]C1([2H])C(n2c3ccc(C(=O)N[C@H](C)CO)cc3c3cn(C)nc32)C([2H])([2H])C([2H])([2H])C([2H])([2H])C1([2H])[2H] [Example C197] |
| 100 to 10000 | Cn1cc2c3cc(C(N)=O)ccc3n(C3CC4(C3)CC(F)(F)C4)c2n1 [Example C205, 8-{6,6-difluorospiro[3.3]heptan-2-yl}-2-methyl-2H,8H-pyrazolo[3,4-b]indole-5-carboxamide] |
| 1 to 10 | CCn1cc2c3cc(C(=O)N[C@@H](CO)c4ccccn4)ccc3n(-c3ccc(C(F)(F)F)cc3)c2n1 [Example C256, 2-ethyl-N-[(1R)-2-hydroxy-1-(pyridin-2-yl)ethyl]-8-[4-(trifluoromethyl)phenyl]-2H,8H-pyrazolo[3,4-b]indole-5-carboxamide] |
| 100 to 10000 | Cn1cc2c3cc(NC(=O)COC4CNC4)ccc3n(-c3ccc(C(F)(F)F)cc3)c2n1 [Example C243, 2-(azetidin-3-yloxy)-N-{2-methyl-8-[4-(trifluoromethyl)phenyl]-2H,8H-pyrazolo[3,4-b]indol-5-yl}acetamide formate] |
| 100 to 10000 | Cn1cc2c3cc(C(=O)/N=S4/CC(N)CO4)ccc3n(-c3ccc(C(F)(F)F)cc3)c2n1 (stereo not shown) [Example C269, N-(4-amino-1,2lambda4-oxathiolan-2-ylidene)-2-methyl-8-[4-(trifluoromethyl)phenyl]-2H,8H-pyrazolo[3,4-b]indole-5-carboxamide formate] |
| 100 to 10000 | CC(NC(=O)c1ccc2c(c1)c1cn(C)nc1n2-c1ccc(C(F)(F)F)cc1)c1cccc(NC(=O)OC(C)(C)C)n1 (stereo not shown) [Example C165, tert-butyl N-{6-[1-({2-methyl-8-[4-(trifluoromethyl)phenyl]-2H,8H-pyrazolo[3,4-b]indol-5-yl}formamido)ethyl]pyridin-2-yl}carbamate] |
| 100 to 10000 | Cn1cc2c3nc(C(N)=O)ccc3n(-c3ccc(C(F)(F)F)cc3)c2n1 [Example C229, 4-methyl-7-[4-(trifluoromethyl)phenyl]-4,5,7,12-tetraazatricyclo[6.4.0.0^2,6]dodeca-1(8),2,5,9,11-pentaene-11-carboxamide] |
| 100 to 10000 | CC(N)CS(C)(=O)=NC(=O)c1ccc2c(c1)c1cn(C)nc1n2-c1ccc(C(F)(F)F)cc1 (stereo not shown) [Example C145, N-[(2-aminopropyl)(methyl)oxo-λ^6-sulfanylidene]-2-methyl-8-[4-(trifluoromethyl)phenyl]-2H,8H-pyrazolo[3,4-b]indole-5-carboxamide] |

More lines, now with the values behind:

| SMILES | IC50 [nM] |
| --- | --- |
| Cc1snc2c1c1cc(C(=O)N3CC[C@@H](O)C3)ccc1n2-c1ccc(C(F)(F)F)cc1 [Example C54, (3R)-1-{3-methyl-8-[4-(trifluoro-methyl)phenyl]-8H-[1,2]thiazolo[3,4-b]indole-5-carbonyl}pyrrolidin-3-ol] | 100 to 10000 |
| Cn1cc2c3nc(C(=O)NCCO)ccc3n(-c3ccc(C(F)(F)F)cc3)c2n1 [Example C113, N-(2-hydroxyethyl)-4-methyl-7-[4-(trifluoromethyl)phenyl]-4,5,7,12-tetraazatricyclo [6.4.0.0^2,6]dodeca-1(8),2,5,9,11-pentaene-11-carboxamide] | 100 to 10000 |
| Cc1snc2c1c1cc(C(=O)N[C@@H](CO)C(C)C)ccc1n2-c1ccc(C(F)(F)F)cc1 [Example C92, N-[(2R)-1-hydroxy-3-methylbutan-2-yl]-3-methyl-8-[4-(trifluoromethyl)phenyl]-8H-[1,2]thiazolo[3,4-b]indole-5-carboxamide] | 10 to 100 |
| CNc1ccc2c(c1)c1cn(C)nc1n2-c1ccc(C(F)(F)F)cc1 [Example C32, N,2-dimethyl-8-[4-(trifluoromethyl)phenyl]-2H,8H-pyrazolo[3,4-b]indol-5-amine] | 100 to 10000 |
| C[C@@H](NC(=O)c1ccc2c(c1)c1cn(C)nc1n2-c1ccc(C(F)(F)F)cc1)c1ccccn1 [Example C107, 2-methyl-N-[(1R)-1-(pyridin-2-yl)ethyl]-8-[4-(trifluoromethyl)phenyl]-2H,8H-pyrazolo[3,4-b]indole-5-carboxamide] | 100 to 10000 |
| CC(CNC(=O)c1ccc2c(c1)c1cn(C)nc1n2-c1ccc(C(F)(F)F)cc1)c1ccc(F)nc1 (stereo not shown) [Example B92] | 100 to 10000 |
| Cn1cc2c3cc(S(=O)(=O)O)ccc3n(-c3ccc(C(F)(F)F)cc3)c2n1 [Example C43, 2-methyl-8-[4-(trifluoromethyl)phenyl]-2H,8H-pyrazolo[3,4-b]indole-5-sulfonic acid] | 100 to 10000 |
| Cc1snc2c1c1cc(C(=O)NCc3nccn3C)ccc1n2-c1ccc(C(F)(F)F)cc1 [Example C79, 3-methyl-N-[(1-methyl-1H-imidazol-2-yl)methyl]-8-[4-(trifluoromethyl)phenyl]-8H-[1,2]thiazolo[3,4-b]indole-5-carboxamide] | 100 to 10000 |
| Cn1cc2c3cc(C(=O)N4CC(C#N)C4)ccc3n(-c3ccc(C(F)(F)F)cc3)c2n1 [Example C59, 1-{2-methyl-8-[4-(trifluoromethyl)phenyl]-2H,8H-pyrazolo[3,4-b]indole-5-carbonyl}azetidine-3-carbonitrile] | 100 to 10000 |
| C[C@H](NC(=O)c1ccc2c(c1)c1cn(C)nc1n2-c1ccc(C(F)(F)F)cc1)c1ccncc1 [Example C127, 2-methyl-N-[(1S)-1-(pyridin-4-yl)ethyl]-8-[4-(trifluoromethyl)phenyl]-2H,8H-pyrazolo[3,4-b]indole-5-carboxamide] | 100 to 10000 |
| CCN1CCC(NC(=O)c2ccc3c(c2)c2cn(C)nc2n3-c2ccc(C(F)(F)F)cc2)CC1 [Example C136, N-(1-ethylpiperidin-4-yl)-2-methyl-8-[4-(trifluoromethyl)phenyl]-2H,8H-pyrazolo[3,4-b]indole-5-carboxamide trifluoroacetate] | 100 to 10000 |
| Cn1cc2c3cc(N(S(C)(=O)=O)S(C)(=O)=O)ccc3n(-c3ccc(C(F)(F)F)cc3)c2n1 [Example C19, N-methanesulfonyl-N-{2-methyl-8-[4-(trifluoromethyl)phenyl]-2H,8H-pyrazolo[3,4-b]indol-5-yl}methanesulfonamide] | 100 to 10000 |
| CC(NC(=O)c1ccc2c(c1)c1cn(C)nc1n2-c1ccc(C(F)(F)F)cc1)c1ncc[nH]1 (stereo not shown) [Example B8] | 100 to 10000 |
| Cc1snc2c1c1cc(C(=O)N[C@H](CO)c3ccccn3)ccc1n2-c1ccc(C(F)(F)F)cc1 [Example C69, N-[(1S)-2-hydroxy-1-(pyridin-2-yl)ethyl]-3-methyl-8-[4-(trifluoromethyl)phenyl]-8H-[1,2]thiazolo[3,4-b]indole-5-carboxamide] | 100 to 10000 |

same assay, conditions: Homo sapiens, SK-HEP1, SK-HEP-1 reporter assay; n.d. = value not detectable below threshold given in parentheses; ND = not determinable within the entire range

| IC50 [nM] | SMILES |
| --- | --- |
| > 10000 | Cn1cc2c3cc(NC(=O)Cc4ccncc4)ccc3n(-c3ccc(C(F)(F)F)cc3)c2n1 [Example C33, N-{2-methyl-8-[4-(trifluoromethyl)phenyl]-2H,8H-pyrazolo[3,4-b]indol-5-yl}-2-(pyridin-4-yl)acetamide] |
